Test system: not listed separately
Experiment: Intrinsic clearance in rat liver microsomes
Format: ADME, Microsome

Q: For Cc1cccc(C#CCOc2ccc(Cl)c(Cl)c2)n1, which microsomal CLint is on record?
A: Its microsomal CLint is 278 µL/min/mg.

Target: Metabotropic glutamate receptor 1 (Homo sapiens, UniProt Q13255)
Experiment: Activity at human mGluR1 assessed as effect on glutamate-induced calcium ion mobilization by FLIPR
Format: functional

Metabotropic glutamate receptor 1, sequence (Q13255 whole entry): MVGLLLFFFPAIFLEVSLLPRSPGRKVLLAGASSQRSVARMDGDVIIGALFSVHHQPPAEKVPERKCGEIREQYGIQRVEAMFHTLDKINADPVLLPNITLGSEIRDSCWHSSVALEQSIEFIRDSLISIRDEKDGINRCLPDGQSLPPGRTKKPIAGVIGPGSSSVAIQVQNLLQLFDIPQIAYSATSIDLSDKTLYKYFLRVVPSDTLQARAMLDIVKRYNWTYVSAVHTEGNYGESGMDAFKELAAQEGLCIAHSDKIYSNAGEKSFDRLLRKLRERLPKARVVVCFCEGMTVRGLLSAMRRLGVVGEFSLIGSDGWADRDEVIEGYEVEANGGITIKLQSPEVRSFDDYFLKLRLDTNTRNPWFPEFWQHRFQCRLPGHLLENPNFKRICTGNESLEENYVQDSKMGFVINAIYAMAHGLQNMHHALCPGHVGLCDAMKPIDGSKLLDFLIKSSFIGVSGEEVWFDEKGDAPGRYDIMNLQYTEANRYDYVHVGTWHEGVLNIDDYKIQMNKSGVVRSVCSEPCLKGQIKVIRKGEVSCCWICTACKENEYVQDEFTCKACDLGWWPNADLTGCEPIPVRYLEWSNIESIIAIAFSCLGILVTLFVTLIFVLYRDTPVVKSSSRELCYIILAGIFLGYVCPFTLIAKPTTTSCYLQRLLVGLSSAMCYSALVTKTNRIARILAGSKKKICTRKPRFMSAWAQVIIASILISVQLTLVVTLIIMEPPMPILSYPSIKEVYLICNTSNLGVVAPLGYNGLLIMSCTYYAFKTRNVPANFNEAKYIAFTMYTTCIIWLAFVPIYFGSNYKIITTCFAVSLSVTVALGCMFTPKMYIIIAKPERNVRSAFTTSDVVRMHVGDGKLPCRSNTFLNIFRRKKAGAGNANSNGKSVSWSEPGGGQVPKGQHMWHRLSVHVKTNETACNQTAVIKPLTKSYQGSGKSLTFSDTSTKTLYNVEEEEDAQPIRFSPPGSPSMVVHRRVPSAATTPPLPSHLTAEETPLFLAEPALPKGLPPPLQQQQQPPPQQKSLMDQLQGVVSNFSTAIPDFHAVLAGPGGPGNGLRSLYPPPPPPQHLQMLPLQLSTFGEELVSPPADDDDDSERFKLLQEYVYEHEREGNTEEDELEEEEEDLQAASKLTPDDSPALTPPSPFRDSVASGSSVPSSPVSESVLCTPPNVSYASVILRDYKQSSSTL

Q: With COc1cccc(OCC#Cc2cccc(C)n2)c1 as the molecule, how does the IC50 read?
A: Its IC50 is greater than 10000 nM.

Q: Which IC50 does the source give for COc1cccc(OCC#Cc2ccccn2)c1 here?
A: The IC50 was greater than 10000 nM.

Q: With CCC(O)(CO)c1cc(F)cc(OCC#Cc2ccccn2)c1 (stereo not drawn) as the molecule, how does the IC50 read?
A: The IC50 was no less than 10000 nM.

Target: Metabotropic glutamate receptor 5 (Homo sapiens, UniProt P41594)
Experiment: Activity at human mGluR5 assessed as effect on glutamate-induced calcium ion mobilization by FLIPR
Format: functional

Metabotropic glutamate receptor 5, sequence (P41594 whole entry): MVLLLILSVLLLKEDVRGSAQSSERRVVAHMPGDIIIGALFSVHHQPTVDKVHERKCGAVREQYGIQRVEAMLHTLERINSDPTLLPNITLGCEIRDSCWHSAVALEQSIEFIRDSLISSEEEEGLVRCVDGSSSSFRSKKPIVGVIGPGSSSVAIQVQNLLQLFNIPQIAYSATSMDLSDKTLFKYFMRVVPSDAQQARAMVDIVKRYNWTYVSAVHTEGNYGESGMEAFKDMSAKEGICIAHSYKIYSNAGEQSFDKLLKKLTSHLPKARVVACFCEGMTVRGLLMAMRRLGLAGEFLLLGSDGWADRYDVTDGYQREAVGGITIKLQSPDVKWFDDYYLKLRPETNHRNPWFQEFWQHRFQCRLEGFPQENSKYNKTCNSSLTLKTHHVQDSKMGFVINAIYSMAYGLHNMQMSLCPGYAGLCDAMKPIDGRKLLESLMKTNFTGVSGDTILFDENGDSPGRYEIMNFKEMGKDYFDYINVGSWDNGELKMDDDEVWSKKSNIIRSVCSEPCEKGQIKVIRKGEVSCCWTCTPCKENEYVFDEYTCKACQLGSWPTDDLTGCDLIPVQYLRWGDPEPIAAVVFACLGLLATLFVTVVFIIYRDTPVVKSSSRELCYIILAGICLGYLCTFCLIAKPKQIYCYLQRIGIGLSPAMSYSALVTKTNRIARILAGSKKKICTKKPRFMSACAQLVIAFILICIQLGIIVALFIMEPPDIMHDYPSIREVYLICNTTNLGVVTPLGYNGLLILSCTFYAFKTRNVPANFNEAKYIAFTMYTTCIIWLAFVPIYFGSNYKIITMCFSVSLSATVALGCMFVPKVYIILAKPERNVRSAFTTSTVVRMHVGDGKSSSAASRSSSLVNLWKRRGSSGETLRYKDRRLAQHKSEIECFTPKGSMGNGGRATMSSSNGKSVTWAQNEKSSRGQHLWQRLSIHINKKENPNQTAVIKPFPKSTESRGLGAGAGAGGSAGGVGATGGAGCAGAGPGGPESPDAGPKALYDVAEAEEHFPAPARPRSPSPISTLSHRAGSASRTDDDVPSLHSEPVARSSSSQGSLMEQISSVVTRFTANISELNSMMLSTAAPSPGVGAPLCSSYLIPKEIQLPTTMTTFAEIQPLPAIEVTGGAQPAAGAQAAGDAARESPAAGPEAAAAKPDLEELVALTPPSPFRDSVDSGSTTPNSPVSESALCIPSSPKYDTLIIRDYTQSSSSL

Q: Which IC50 does the source give for Cc1cccc(C#CCOc2ccc(Cl)cc2)n1 here?
A: The IC50 was 102 nM.

Q: For COc1cccc(OCC#Cc2cnccn2)c1, which IC50 is on record?
A: The IC50 was greater than 10000 nM.

Q: For COc1cccc(OCC#Cc2cccc(C)n2)c1, which IC50 is on record?
A: Its IC50 is 397 nM.

Q: For Cc1cccc(C#CCOc2ccccc2Cl)n1, which IC50 is on record?
A: Its IC50 is greater than 3000 nM.

Q: For COc1cccc(OCC#Cc2ccccn2)c1, which IC50 is on record?
A: The IC50 was 1540 nM.

Q: For Cc1ccc(OCC#Cc2cccc(C)n2)cc1, which IC50 is on record?
A: Its IC50 is 115 nM.

Q: With Cc1cccc(C#CCOc2cc(=O)[nH]c3ccccc23)n1 as the molecule, how does the IC50 read?
A: The IC50 was 825 nM.

Q: For Cc1cccc(C#CCOc2cccc([N+](=O)[O-])c2)n1, which IC50 is on record?
A: Its IC50 is 416 nM.

Q: For CCC(O)(CO)c1cc(F)cc(OCC#Cc2ccccn2)c1 (stereo not drawn), which IC50 is on record?
A: The IC50 was 300 nM.

Q: For Cc1cccc(C#CCOc2ccccc2)n1, which IC50 is on record?
A: The IC50 was greater than 10000 nM.

Q: With Cc1cccc(C#CCOc2ccc(Cl)c(Cl)c2)n1 as the molecule, how does the IC50 read?
A: The IC50 was 15 nM.

Q: For Cc1cccc(C#CCOc2ccc(C(C)C)cc2)n1, which IC50 is on record?
A: The IC50 was 83 nM.

Q: With COc1ccc(OCC#Cc2cccc(C)n2)cc1 as the molecule, how does the IC50 read?
A: Its IC50 is 455 nM.

Q: Which IC50 does the source give for COc1cccc(OCC#Cc2ncccc2C)c1 here?
A: Its IC50 is greater than 10000 nM.

Q: Which IC50 does the source give for Cc1cccc(C#CCOc2ccc3c(c2)CCCC3)n1 here?
A: The IC50 was 36 nM.

Q: Which IC50 does the source give for COc1cccc(OCC#Cc2ccc(C)cn2)c1 here?
A: The IC50 was 7930 nM.

Q: With Cc1cccc(C#CCOc2cccc(Cl)c2)n1 as the molecule, how does the IC50 read?
A: Its IC50 is 101 nM.

Q: With COc1cccc(OCC#Cc2nccs2)c1 as the molecule, how does the IC50 read?
A: Its IC50 is greater than 10000 nM.

Q: For COc1cccc(OCC#Cc2cc(C)ccn2)c1, which IC50 is on record?
A: Its IC50 is greater than 10000 nM.

Q: For COc1cccc(OCC#Cc2cccc(OC)n2)c1, which IC50 is on record?
A: The IC50 was greater than 10000 nM.

Q: For Cc1cccc(C#CCOc2cccnc2)n1, which IC50 is on record?
A: The IC50 was greater than 10000 nM.

Q: Which IC50 does the source give for COc1cccc(OCC#Cc2ccncc2)c1 here?
A: Its IC50 is greater than 10000 nM.

Q: Which IC50 does the source give for Cc1ccc(OCC#Cc2cccc(C)n2)cn1 here?
A: Its IC50 is 2490 nM.

Q: Which IC50 does the source give for COC(=O)c1cncc(OCC#Cc2cccc(C)n2)c1 here?
A: Its IC50 is 1490 nM.
